Measurements: patent US10351621B2, “Anti-histone therapy in acute kidney injury” (Immunomedics, Inc., priority 2014, dated 2019)
Entries after “also recorded” stand apart in the source; their conditions may differ.

What was measured:
HK-2 cells = assay: NETs cytotoxicity to TCs (conditioned NETs media, LDH assay); type: cell-based, human; details: 20 h after addition; neutrophils pre-treated with PAD inhibitor 200 μM
Description: Neutrophils were stimulated by PMA, histones, or necrotic TCs derived conditioned media and 3 hours after incubation the supernatant was replaced with fresh media (RPMI), and the bottom NETs were collected to avoid the contamination of the media with exogenous PMA or necrotic TCs or histones as previously described (Najmeh et al., 2015, J Vis Exp 16:98). After centrifugation (1200 rpm, 5 min), the supernatants were applied to TCs (1:1). At 20 hours after addition of conditioned NETs media, TCs injury was evaluated by LDH assay. To investigate whether the formed NETs affect fresh neutrophils, conditioned NETs media was applied to fresh neutrophils and 4 h after incubation, additional NET formation in fresh neutrophils was evaluated by immunostaining.
A cell death detection (TUNEL) kit (Roche) was used to quantify dead cells in accordance with the manufacturer's instructions. Systemic dead cell derived DNAs in plasma were quantified by PICOGREEN® dsDNA assay kit (Thermo Fisher Scientific). In vitro, cytotoxicity was evaluated by LDH assay (Roche).

human neutrophils = assay: In vitro NET formation in neutrophils stimulated by PMA or necrotic TCs media; type: cell-based; details: PAD inhibitor 200 μM; PMA 25 nM or necrotic TCs media
Description: Neutrophils were isolated from human healthy volunteers using standard dextran sedimentation followed by Ficoll-Hypaque density centrifugation procedures (Brinkmann et al., 2004, Science 303:1532-1535). Blood donors provided written informed consent forms approved by the local ethical committee. Neutrophils were suspended in RPMI medium (2×10^5˜2×10^6 cell/ml) and seeded into 8-well microns slides or 12˜96-well plates (Ibidi, Martinsried, Germany) in a 5% carbon dioxide atmosphere at 37° C. for 30 minute before stimulation. The neutrophils were placed in normal or hypoxia condition (1% oxygen) for 3, 6, or 24 hours, or stimulated by Phorbol 12-myristate 13-acetate (PMA, 25 nM, Sigma-Aldrich), total calf thymus histones (10, 50, or 100 μg/ml), and necrotic conditioned media from TCs (control, hypoxia, H2O2 stimulation) for 3-4 hours. […]
(§1) In human neutrophil experiments, NETs were quantified by the MPO-DNA sandwich ELISA method using anti-DNA abs (Roche, Mannheim, Germany) and anti-human MPO abs (AbD Serotec) as described (Nakazawa, 2014, J Am Soc Nephrol 25:990-7). In mouse neutrophils experiments, BAL NETs (undiluted) and plasma NETs (×2 diluted in PBS) were evaluated by NE-DNA complex using anti-DNA abs and anti-mouse NE abs (Santa Cruz) as described (Sayah et al., 2015, Am J Respir Crit Care Med 191:455-63). The CitH3 positive NETs were quantified using ImageJ software.

[1] = system: bilateral IRI kidney mice; assay: Bilateral IRI kidney model mice (post-ischemic AKI); type: in vivo; details: ischemia 35 min, reperfusion 24 h
Description: C57BL/6N male mice were procured from Charles River Laboratories (Sulzfeld, Germany). 6-8 week-old mice (N=5-14) were anesthetized before renal pedicle clamping (unilateral: 15, 25, 35, or 45 min) with a microaneurysm clamp via flank incisions (Medicon, Tuttlingen, Germany). Body temperature was maintained at between 37° C. and 38° C. throughout the procedure by placing the mice on a heating pad. After clamp removal, recovery of blood flow to the kidney was confirmed as evidenced by returning to its original color, before closing the wound. To maintain fluid balance, all mice were supplemented with 0.5 ml of 0.9% NaCl administered peritoneally. Mice were killed after 0 min, 15 min, 30 min, 6 h, 12 h, 15 h, 24 h, 2 d, 3 d, 7 d and 10 days after surgery. Bilateral IRI mice (ischemia 35 min, reperfusion 24 h) were treated with PAD inhibitor (20 mg/kg, intraperitoneal injection; i.p: CALBIOCHEM®), anti-histone IgGs (20 mg/kg, i.p; clone BWA3; IMMUNOMEDICS®, Morris Plains, N.J.), necrosis inhibitor combination (Necrostatinl/Enzo 1.65 mg/kg i.p, Ferrostatin/CALBIOCHEM®, 2 mg/kg i.p, Ciclosporin/Novartis 10 mg/kg, i.v) 2 hours before IRI surgery. Neutrophil depletion was performed as described previously (Huang et al., 2015, Hepatology 62:600-14) with an i.p. injection of 500 μg anti-Ly6G IgGs (1A8) (BIOXCELL®) or control IgGs 24 and 2 hours before IRI surgery.
For immunofluorescence, the tissues after sacrifice were fixed with 4% paraformaldehyde for 2 hours, dehydrated with 30% sucrose for 24 hours at 4° C., frozen in OCT (TISSUE-TEK®, OCT compounds, SAKURA®) and cryosectioned (5 μm thick). The CitH3 positive NETs and TUNEL positive necrotic cells were quantified using ImageJ software.
For immunostaining, rat anti-mouse Ly6b (neutrophils) ab (AbD Serotec, Oxford, United Kingdom), rabbit citrullinated histone 3 ab (Abcam, Cambridge, United Kingdom), or goat anti neutrophil elastase ab (Santa Cruz Biotechnology, USA) were used. To count the positive cells, 3 high-power fields (100×) were analyzed. BUN and creatinine were measured using urea or creatinine FS kits (DiaSys Diagnostic Systems, Holzheim, Germany) according to the manufacturer's protocols. Mice plasma was analysed for IL-6 and TNF cytokine secretion by ELISA (BD Pharmingen, San Diego, Calif.). Plasma histone was analyzed by western blotting. To prepare a control model with high concentration of histone, lipopolysaccharide (LPS, 20 mg/kg, i.p) was injected into WT mice (8 weeks age, male), and blood samples were taken 6 hours after LPS injection (Li et al., 2011, Surgery 150:442-51). Bronchoalveolar lavage fluid (BAL) in IRI mice was performed as previously described (Sayah et al., 2015, Am J Respir Crit Care Med 191:455-63). The BAL cell number and supernatant NETs were evaluated by cell counter and NE-DNA complexes ELISA, respectively.
as §1

[2] = system: IRI-induced kidney damage; details: chemical inhibitors of necroptosis, ferroptosis, MPT-RN; cited from earlier work
DDD of PKA = DDD of PKA (Homo sapiens, UniProt P13861); details: cited from earlier work
DDD of PKA, sequence (P13861 2-45 limits assumed): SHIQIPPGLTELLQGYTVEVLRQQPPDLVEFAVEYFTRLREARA

[3] = system: RII and RI isoforms of PKA; details: Gold et al. 2006; cited from earlier work
[4] = system: glomerular endothelial cells, podocytes, and parietal epithelial cells; assay: Histone killing of glomerular cells (summary); type: cell-based, mouse; details: histones from calf thymus or released by neutrophils undergoing NETosis
Description: Mouse glomerular endothelial cells (GEnC (46)), podocytes (47)), and parietal epithelial cells (PECs, (48)) were cultured in 96 well plates with RPMI media without FCS and PS and allowed to adhere overnight. The cells were stimulated with the different concentrations of total calf thymus histones (10, 20, 30, 40, 50 and 100 μg/ml) with or without histone antibody for another 18-20 h. Cytotoxicity assay was performed using Promega CELLTITER 96® non-radioactive cell proliferation assay (MTT Assay Kit, Mannheim, Germany). Glomerular cells were also incubated with histones with or without anti-histone IgG, heparin and/or aPC. LDH assay using cytotoxicity detection kit (Roche Diagnostics, Mannheim, Germany) was used to assess cell death.

glomeruli = assay: Histone toxicity on glomeruli ex vivo; type: cell-based, mice
Excerpt: Whether glomerular toxicity of extracellular histones is TLR2/4-dependent is not clear. To answer this question we exposed glomeruli isolated from wild type and Tlr2/4-deficient mice to histones ex vivo. […] We also studied the effects of extracellular histones on glomeruli in vivo. Because intravenous histone injection kills mice immediately by pulmonary microvascular injury (Xu et al., 2009, Nat Med 15:1318), we injected histones directly into the left renal artery in anaesthetized mice. Unilateral histone injection caused glomerular lesions within 24 hours ranging from minor endothelial fibrinogen positivity to thrombotic microangiopathy and global glomerular necrosis (not shown). The contralateral kidney remained unaffected (not shown).

[5] = system: GBM antiserum-induced glomerulonephritis in mice; assay: Anti-GBM nephritis model, delayed onset of treatment (established disease); type: in vivo
Description: C57BL/6 mice were procured from Charles River (Sulzfeld, Germany). 6-8 week old mice received an intravenous injection of 100 μl of anti-GBM serum (sheep anti-rat glomeruli basement membrane serum procured from Probetex INC, PTX-001). Urine samples were collected at different time points after antiserum injection to evaluate the functional parameters of kidney damage. On day 7 the mice were sacrificed by cervical dislocation to collect plasma and kidney tissue. Kidneys were kept at −80° C. for protein isolation and in RNALATER® solution at −20° C. for RNA isolation. A part of the kidney was also kept in formalin to be embedded in paraffin for histological analysis (Teixeira et al., 2005, Kidney Int 67:514B). We treated groups of mice either with 20 mg/kg, i.p. control IgG or anti-histone antibody (clone BWA-3) to neutralize the effects of extracellular histones.
Renal sections of 2 μm were stained with periodic acid-Schiff reagent. Glomerular abnormalities were scored in 50 glomeruli per section by a blinded observer. The following criteria were assessed in each of the 50 glomeruli and scored as segmental or global lesions if less or more than 50% of the glomerular tuft were affected by focal necrosis and capsule adhesions. Cellular crescents were assessed separately when more than a single layer of PECs were present around the inner circumference of Bowman' s capsule. Immunostaining was performed as described using the following primary antibodies: for WT-1/nephrin, neutrophils (Serotec, Oxford, UK), Mac-2 (Cedarlane, Ontario, Canada), TNF-α (Abcam, Cambridge, UK) and fibrinogen (Abcam, Cambridge, UK). Stained glomerular cells were quantified in 50 glomeruli per section.
We mext examined whether histone neutralization could be therapeutic in established disease. […] In another series of experiments we initiated anti-histone IgG, heparin, and aPC treatments 24 hours after GBM antiserum injection, a time point where massive proteinuria and elevated BUN were already established (not shown). […]

PECs = assay: Histone-induced activation of parietal epithelial cells; type: cell-based, mouse
Excerpt: Mitogenic plasma proteins leaking from injured glomerular capillaries cause PEC hyperplasia and glomerular crescent formation (Ryu et al., 2012, J Pathol 228:482; Smeets et al., 2009, J Am Soc Nephrol 20:2593; Smeets et al., 2009, J Am Soc Nephrol 20:2604).
Previous reports documented that heparin and recombinant activated protein C (aPC) also block histone toxicity (Xu et al., 2009, Nat Med 15:1318; Wildhagen et al., 2013, Blood 123:1098). […] Thus, extracellular histones activate PECs in a TLR2/4-dependent manner, a process that may act synergistically with other triggers of PEC hyperplasia during crescent formation and that can be blocked by anti-histone IgG, aPC or heparin.

[6] = in vivo; cited from earlier work

Molecule: NC(=O)[C@H](CCCN=C(N)CCl)NC(=O)c1ccccc1 [PAD inhibitor, Cl-amidine]
- tubular cell injury by conditioned NETs media (LDH assay) (HK-2 cells): abrogated; also recorded: reduced the damage of TCs
- induced NET formation in neutrophils (MPO-DNA complex of supernatants) (human neutrophils): abrogated
- NET components in plasma [1]: substantially reduced
- expression of AKI marker genes [1]: significantly reduced
- renal function (plasma creatinine, plasma urea) [1]: significantly reduced
- tissue necrotic area / tubular necrosis ([1]; PAS and TUNEL staining): significantly reduced
- protective effect on IRI kidney (overall) ([1]; listed as NET inhibitor): ameliorates
- protective effect on IRI kidney (overall) ([1]; listed as inhibitor of NET formation): protected
- abundance of NETs in the post-ischemic kidney ([1]; treated before surgery): substantially reduced

Molecule: CCOC(=O)c1ccc(NC2CCCCC2)c(N)c1 [ferrostatin 1]
- kidney injury [2]: did not completely prevent

Molecule: CN1C(=O)C(Cc2c[nH]c3ccccc23)NC1=S (stereo not shown) [necrostatin 1]
- kidney injury [2]: did not completely prevent

Molecule: CC[C@H]1C[C@H](C)[C@@]2(NC1=O)O[C@@H](C[C@H](O)[C@@H](C)CC/C=C/C=C(\C)[C@@H]1C/C=C/C=C/[C@H](O)[C@H](C)[C@@H](O)[C@@H](CCC(C)=O)C(=O)N[C@@H](C(C)C)C(=O)N[C@@H](Cc3cccc(O)c3)C(=O)N3CCC[C@H](N3)C(=O)O1)[C@H](C)[C@H](O)[C@@H]2C [sanglifehrin A]
- kidney injury [2]: did not completely prevent

Molecule: RII selective AD sequence, SEQ ID NO:21 QIEYLAKQIVDNAIQQA [AKAP-IS]
- Kd (DDD of PKA; Alto et al. 2003, read-out: binding constant for DDD): 0.4 nM
- affinity for the MI DDD sequence (DDD of PKA; Hundsrucker et al. 2006): particularly high affinities

Molecule: SuperAKAP-IS: SEQ ID NO:30 QIEYVAKQIVDYAIHQA
- selectivity for the RII isoform of PKA compared with the RI isoform [3]: five order of magnitude higher

Molecule: heparin
- killing of glomerular cells by histones / extracellular histone toxicity in vitro [4]: prevented
- histone toxicity on glomeruli ex vivo (glomeruli): completely blocked
- renal dysfunction and structural injury during severe GN ([5]; delayed onset of histone blockade): protects
- severe glomerulonephritis in mice with established disease ([5]; mouse, in vivo): abrogated
- all aspects of GBM antiserum-induced severe GN ([5]; pre-emptive as well as delayed onset of histone neutralization): abrogates
- PEC activation by histones (PECs): protective effect

Molecule: veltuzumab: humanized IgG1 antibody against CD20
- immunogenicity in subjects compared with rituximab [6]: less immunogenic
